Data taken from patent EP0908457B1, “3-(1,2-benzisothiazol- and isoxazol-5-Y1)-2,4(1H,3H)-pyrimidinedione or thione and 3-(1,2-benzisothiazol- and isoxazol-5-y1)-4(3H)-pyrimidinone or thione herbicidal agents” (BASF AKTIENGESELLSCHAFT, priority 1997, dated 1999).

Columns and labels:
[1] = test system: Echinochloa oryzoides (Ard.) Fritsch.; assay: Preemergence weed control under flooded paddy conditions, ECHORC (Watergrass (Calif.)); type: in vivo; details: flooded paddy; for ECHORC: herbicidal effect rating 0-9, three to four weeks after treatment; for herbicidal effect rating, ECHORC: meaning of each grade not given here
[2] = test system: Cyperus iria; assay: Preemergence weed control under flooded paddy conditions, CYPIR (Rice Flatsedge); type: in vivo; details: flooded paddy; for CYPIR: herbicidal effect rating 0-9, three to four weeks after treatment; for herbicidal effect rating, CYPIR: meaning of each grade not given here
[3] = test system: Cyperus serotinus, Rottb.; assay: Preemergence weed control under flooded paddy conditions, CYPSE (Flatsedge); type: in vivo; details: for CYPSE: herbicidal effect rating 0-9, three to four weeks after treatment; for herbicidal effect rating, CYPSE: meaning of each grade not given here
[4] = test system: Monochoria vaginalis, Presl.; assay: Preemergence weed control under flooded paddy conditions, MOOVA (Monochoria); type: in vivo; details: flooded paddy; for MOOVA: herbicidal effect rating 0-9, three to four weeks after treatment; for herbicidal effect rating, MOOVA: meaning of each grade not given here
[5] = test system: Sagittaria pygmaea, L.; assay: Preemergence weed control under flooded paddy conditions, SAGPY (Arrowhead (Pygmaea)); type: in vivo; details: flooded paddy; for SAGPY: herbicidal effect rating 0-9, three to four weeks after treatment; for herbicidal effect rating, SAGPY: meaning of each grade not given here
[6] = test system: Oryza sativa, (L.) Tebonnet; assay: Rice tolerance to post-transplant applications under flooded paddy conditions (Example 187), ORYSAT (Rice, Tebonnet); details: for ORYSAT: herbicidal effect rating 0-9, three to four weeks after treatment; for herbicidal effect rating ORYSAT: meaning of each grade not given here
[7] = Rate 0.0320 kg/ha, preemergence, rated 3-4 weeks after treatment
[8] = Rate 0.0620 kg/ha, preemergence, rated 3-4 weeks after treatment
[9] = Rate 0.1250 kg/ha, preemergence, rated 3-4 weeks after treatment
[10] = Rate 0.2500 kg/ha, preemergence, rated 3-4 weeks after treatment
[11] = Rate 0.5000 kg/ha, preemergence, rated 3-4 weeks after treatment
[12] = Rate 0.0320 kg/ha, preemergence weeds, rated three to four weeks after treatment
[13] = Rate 0.0620 kg/ha, preemergence weeds, rated three to four weeks after treatment
[14] = Rate 0.1250 kg/ha, preemergence weeds, rated three to four weeks after treatment
[15] = Rate 0.2500 kg/ha, preemergence weeds, rated three to four weeks after treatment
[16] = Rate 0.0320 kg/ha, rated three to four weeks after treatment
[17] = Rate 0.0620 kg/ha, rated three to four weeks after treatment
[18] = Rate 0.1250 kg/ha, rated three to four weeks after treatment
[19] = Rate 0.2500 kg/ha, rated three to four weeks after treatment
[20] = 0.0320 kg/ha, preemergence weeds
[21] = 0.0620 kg/ha, preemergence weeds
[22] = 0.1250 kg/ha, preemergence weeds
[23] = 0.2500 kg/ha, preemergence weeds
[24] = 0.0313 kg/ha, preemergence, rated three to four weeks after treatment
[25] = 0.0625 kg/ha, preemergence, rated three to four weeks after treatment
[26] = 0.1250 kg/ha, preemergence, rated three to four weeks after treatment
[27] = 0.2500 kg/ha, preemergence, rated three to four weeks after treatment
[28] = Rate 0.0320 kg/ha, preemergence, rated three to four weeks after treatment
[29] = Rate 0.0620 kg/ha, preemergence, rated three to four weeks after treatment
[30] = Rate 0.1250 kg/ha, preemergence, rated three to four weeks after treatment
[31] = Rate 0.2500 kg/ha, preemergence, rated three to four weeks after treatment
[32] = Rate 0.5000 kg/ha, preemergence, rated three to four weeks after treatment

For `Cn1c(C(F)(F)F)cc(=O)n(-c2ccc3snc(-c4ccccc4OCC(=O)C(C)(C)C)c3c2)c1=O` [Example 549, 2,4(1H,3H)-Pyrimidinedione, 3-{3-[o-(3,3-dimethyl-2-oxobutoxy)phenyl)-1,2-benzisothiazol-5-yl}-1-methyl-6-(trifluoromethyl)-], the “herbicidal effect rating, ECHORC” value [1, 7] was 3.0, the “herbicidal effect rating, ECHORC” value [1, 8] was 3.6 and the “herbicidal effect rating, ECHORC” value [1, 9] was 5.1. For the same molecule, the “herbicidal effect rating, ECHORC” value [1, 10] was 9.0, the “herbicidal effect rating, ECHORC” value [1, 11] was 9.0 and the “herbicidal effect rating, CYPIR” value [2, 7] was 7.0. For the same molecule, the “herbicidal effect rating, CYPIR” value [2, 8] was 9.0, the “herbicidal effect rating, CYPIR” value [2, 9] was 9.0 and the “herbicidal effect rating, CYPIR” value [2, 10] was 9.0. The “herbicidal effect rating, CYPIR” value [2, 11] was 9.0, the “herbicidal effect rating, CYPSE” value [3, 7] was 0.0 and the “herbicidal effect rating, CYPSE” value [3, 8] was 0.0. The “herbicidal effect rating, CYPSE” value [3, 9] was 2.0, the “herbicidal effect rating, CYPSE” value [3, 10] was 9.0 and the “herbicidal effect rating, CYPSE” value [3, 11] was 9.0. For the same molecule, the “herbicidal effect rating, MOOVA” value [4, 7] was 9.0, the “herbicidal effect rating, MOOVA” value [4, 8] was 9.0 and the “herbicidal effect rating, MOOVA” value [4, 9] was 9.0. The “herbicidal effect rating, MOOVA” value [4, 10] was 9.0, the “herbicidal effect rating, MOOVA” value [4, 11] was 9.0 and the “herbicidal effect rating, SAGPY” value [5, 7] was 0.0. For the same molecule, the “herbicidal effect rating, SAGPY” value [5, 8] was 0.0, the “herbicidal effect rating, SAGPY” value [5, 9] was 4.0 and the “herbicidal effect rating, SAGPY” value [5, 10] was 4.0. For the same molecule, the “herbicidal effect rating, SAGPY” value [5, 11] was 0.0, the “herbicidal effect rating ORYSAT” value ([6]; Rate 0.0320 kg/ha, rated 3-4 weeks after treatment) was 4.0 and the “herbicidal effect rating ORYSAT” value ([6]; Rate 0.0620 kg/ha, rated 3-4 weeks after treatment) was 4.0. For the same molecule, the “herbicidal effect rating ORYSAT” value ([6]; Rate 0.1250 kg/ha, rated 3-4 weeks after treatment) was 4.0, the “herbicidal effect rating ORYSAT” value ([6]; Rate 0.2500 kg/ha, rated 3-4 weeks after treatment) was 4.0 and the “herbicidal effect rating ORYSAT” value ([6]; Rate 0.5000 kg/ha, rated 3-4 weeks after treatment) was 2.0.

In the case of `Cn1c(C(F)(F)F)cc(=O)n(-c2ccc3snc(CN(C(=O)OC(C)(C)C)S(C)(=O)=O)c3c2)c1=O` [Example 304, Carbamic acid, {{5-[3,6-dihydro-3-methyl-2,6-dioxo-4-(trifluoromethyl)-1(2H)-pyrimidinyl]-1,2-benzisothiazol-3-yl}methyl}(methylsulfonyl)-, tert-butyl ester], the “herbicidal effect rating, ECHORC” value [1, 12] is reported as 0.0, the “herbicidal effect rating, ECHORC” value [1, 13] is reported as 0.0 and the “herbicidal effect rating, ECHORC” value [1, 14] is reported as 0.0. The “herbicidal effect rating, ECHORC” value [1, 15] was 0.0, the “herbicidal effect rating, CYPIR” value [2, 12] was 0.0 and the “herbicidal effect rating, CYPIR” value [2, 13] was 4.0. The “herbicidal effect rating, CYPIR” value [2, 14] was 9.0, the “herbicidal effect rating, CYPIR” value [2, 15] was 9.0 and the “herbicidal effect rating, CYPSE” value [3, 12] was 0.0. For the same molecule, the “herbicidal effect rating, CYPSE” value [3, 13] was 0.0, the “herbicidal effect rating, CYPSE” value [3, 14] was 0.0 and the “herbicidal effect rating, CYPSE” value [3, 15] was 0.0. The “herbicidal effect rating, MOOVA” value [4, 12] was 0.0, the “herbicidal effect rating, MOOVA” value [4, 13] was 7.0 and the “herbicidal effect rating, MOOVA” value [4, 14] was 7.0. The “herbicidal effect rating, MOOVA” value [4, 15] was 9.0, the “herbicidal effect rating, SAGPY” value [5, 12] was 0.0 and the “herbicidal effect rating, SAGPY” value [5, 13] was 0.0. The “herbicidal effect rating, SAGPY” value [5, 14] was 0.0, the “herbicidal effect rating, SAGPY” value [5, 15] was 0.0 and the “herbicidal effect rating ORYSAT” value [6, 16] was 0.0. The “herbicidal effect rating ORYSAT” value [6, 17] was 2.0, the “herbicidal effect rating ORYSAT” value [6, 18] was 4.0 and the “herbicidal effect rating ORYSAT” value [6, 19] was 4.0.

In the case of `Cn1c(C(F)(F)F)cc(=O)n(-c2ccc3snc(C(=O)NS(=O)(=O)Cc4ccccc4[N+](=O)[O-])c3c2)c1=O` [Example 404, 1,2-Benzisothiazole-3-carboxamide, 5-[3,6-dihydro-3-methyl-2,6-dioxo-4-(trifluoromethyl)-1(2H)-pyrimidinyl]-N-[(o-nitrobenzyl)sulfonyl]-], the ECHORC [1, 20] is reported as 0.0, the ECHORC [1, 21] is reported as 3.0 and the ECHORC [1, 22] is reported as 6.0. For the same molecule, the ECHORC [1, 23] was 7.0, the CYPIR [2, 20] was 0.0 and the CYPIR [2, 21] was 0.0. It also gave a CYPIR [2, 22] of 2.0, a CYPIR [2, 23] of 6.0 and a CYPSE [3, 20] of 0.0. For the same molecule, the CYPSE [3, 21] was 0.0, the CYPSE [3, 22] was 0.0 and the CYPSE [3, 23] was 0.0. It also gave an MOOVA [4, 20] of 4.0, an MOOVA [4, 21] of 5.0 and an MOOVA [4, 22] of 5.0. It also gave an MOOVA [4, 23] of 6.0, an SAGPY [5, 20] of 0.0 and an SAGPY [5, 21] of 0.0. For the same molecule, the SAGPY [5, 22] was 0.0, the SAGPY [5, 23] was 0.0 and the ORYSAT ([6]; 0.0320 kg/ha) was 0.0. For the same molecule, the ORYSAT ([6]; 0.0620 kg/ha) was 0.0, the ORYSAT ([6]; 0.1250 kg/ha) was 0.0 and the ORYSAT ([6]; 0.2500 kg/ha) was 2.0.

With `COc1ccccc1Oc1noc2ccc(-n3c(=O)cc(C(F)(F)F)n(C)c3=O)cc12` [Example 43, 3-[3-(o-Methoxyphenoxy)-1,2-benzisoxazol-5-yl]-1-methyl-6-(trifluoromethyl)-2,4(1H,3H)-pyrimidinedione] the “herbicidal effect rating, ECHORC” value [1, 24] was 0.0, the “herbicidal effect rating, ECHORC” value [1, 25] was 0.0 and the “herbicidal effect rating, ECHORC” value [1, 26] was 2.0. For the same molecule, the “herbicidal effect rating, ECHORC” value [1, 27] was 8.0, the “herbicidal effect rating, CYPIR” value [2, 24] was 0.0 and the “herbicidal effect rating, CYPIR” value [2, 25] was 0.0. For the same molecule, the “herbicidal effect rating, CYPIR” value [2, 26] was 0.0, the “herbicidal effect rating, CYPIR” value [2, 27] was 0.0 and the “herbicidal effect rating, CYPSE” value [3, 24] was 0.0. The “herbicidal effect rating, CYPSE” value [3, 25] was 0.0, the “herbicidal effect rating, CYPSE” value [3, 26] was 0.0 and the “herbicidal effect rating, CYPSE” value [3, 27] was 0.0. The “herbicidal effect rating, MOOVA” value [4, 24] was 6.0, the “herbicidal effect rating, MOOVA” value [4, 25] was 9.0 and the “herbicidal effect rating, MOOVA” value [4, 26] was 9.0. The “herbicidal effect rating, MOOVA” value [4, 27] was 9.0, the “herbicidal effect rating, SAGPY” value [5, 24] was 0.0 and the “herbicidal effect rating, SAGPY” value [5, 25] was 0.0. The “herbicidal effect rating, SAGPY” value [5, 26] was 0.0, the “herbicidal effect rating, SAGPY” value [5, 27] was 0.0 and the “herbicidal effect rating, ORYSAT (rice tolerance)” value (“herbicidal effect rating, ORYSAT” for short) ([6]; 0.0313 kg/ha, rated three to four weeks after treatment) was 1.0. For the same molecule, the “herbicidal effect rating, ORYSAT” value ([6]; 0.0625 kg/ha, rated three to four weeks after treatment) was 2.0, the “herbicidal effect rating, ORYSAT” value ([6]; 0.1250 kg/ha, rated three to four weeks after treatment) was 3.0 and the “herbicidal effect rating, ORYSAT” value ([6]; 0.2500 kg/ha, rated three to four weeks after treatment) was 3.0.

For `COC(=O)COc1c(-c2nsc3ccc(-n4c(=O)cc(C(F)(F)F)n(C)c4=O)cc23)ccc(C)c1C` [Example 274, Acetic acid, {{6-{5-[3,6-dihydro-3-methyl-2,6-dioxo-4-(trifluoromethyl)-1(2H)-pyrimidinyl]-1,2-benzisothiazol-3-yl}-2,3-xylyl}oxy}-, methyl ester], the “ECHORC herbicidal effect rating” value [1, 28] was 3.3, the “ECHORC herbicidal effect rating” value [1, 29] was 4.1 and the “ECHORC herbicidal effect rating” value [1, 30] was 5.9. For the same molecule, the “ECHORC herbicidal effect rating” value [1, 31] was 9.0, the “ECHORC herbicidal effect rating” value [1, 32] was 9.0 and the “CYPIR herbicidal effect rating” value [2, 28] was 7.0. For the same molecule, the “CYPIR herbicidal effect rating” value [2, 29] was 8.0, the “CYPIR herbicidal effect rating” value [2, 30] was 9.0 and the “CYPIR herbicidal effect rating” value [2, 31] was 9.0. For the same molecule, the “CYPIR herbicidal effect rating” value [2, 32] was 2.0, the “CYPSE herbicidal effect rating” value [3, 28] was 0.0 and the “CYPSE herbicidal effect rating” value [3, 29] was 2.0. For the same molecule, the “CYPSE herbicidal effect rating” value [3, 30] was 8.0, the “CYPSE herbicidal effect rating” value [3, 31] was 9.0 and the “CYPSE herbicidal effect rating” value [3, 32] was 9.0. The “MOOVA herbicidal effect rating” value [4, 28] was 9.0, the “MOOVA herbicidal effect rating” value [4, 29] was 9.0 and the “MOOVA herbicidal effect rating” value [4, 30] was 9.0. The “MOOVA herbicidal effect rating” value [4, 31] was 9.0, the “MOOVA herbicidal effect rating” value [4, 32] was 9.0 and the “SAGPY herbicidal effect rating” value [5, 28] was 0.0. For the same molecule, the “SAGPY herbicidal effect rating” value [5, 29] was 0.0, the “SAGPY herbicidal effect rating” value [5, 30] was 4.0 and the “SAGPY herbicidal effect rating” value [5, 31] was 9.0. For the same molecule, the “SAGPY herbicidal effect rating” value [5, 32] was 4.0, the “ORYSAT herbicidal effect rating” value [6, 16] was 2.0 and the “ORYSAT herbicidal effect rating” value [6, 17] was 4.0. The “ORYSAT herbicidal effect rating” value [6, 18] was 4.0, the “ORYSAT herbicidal effect rating” value [6, 19] was 8.0 and the “ORYSAT herbicidal effect rating” value ([6]; Rate 0.5000 kg/ha, rated three to four weeks after treatment) was 7.0.
